Measurements from paper PMC4308110 (PLoS ONE, 2015).

Target: T1, SthK-Cterm (Winmispira thermophila, UniProt E0RR11)
T1 construct: gene STHERM_c06300; C-linker/CNBD, residues 226-430 of full length; synthetic gene, His6-MBP fusion cut with thrombin; E. coli BL21(DE3); tetramer (SEC-MALLS); model residues 226-423
Assay: X-ray crystal structure
Settings: antagonist; 5 mM cGMP added; bistrispropane pH 7.5, 20 °C; 2.55 Å; cyclic nucleotide-binding site

T1 sequence (E0RR11 entry or part of it): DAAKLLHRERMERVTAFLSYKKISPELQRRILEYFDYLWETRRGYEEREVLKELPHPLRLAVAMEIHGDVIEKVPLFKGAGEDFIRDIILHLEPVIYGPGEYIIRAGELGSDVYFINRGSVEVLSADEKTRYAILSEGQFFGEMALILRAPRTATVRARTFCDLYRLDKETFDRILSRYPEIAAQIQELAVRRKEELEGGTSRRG

In the case of `Nc1nc2c(ncn2[C@@H]2O[C@@H]3COP(=O)(O)O[C@H]3[C@H]2O)c(=O)[nH]1` [cGMP], the X-ray crystal structure is reported as “we observe that cGMP is able to bind in the cyclic nucleotide binding cavity from SthK”.
